Experimental findings from ChEMBL document CHEMBL5257076, “Design, synthesis, structure-activity relationship studies, and evaluation of novel GLS1 inhibitors” (Bioorg Med Chem Lett, 2023) are described below.

The structures appear in SMILES notation. Active and inactive are the calls of the source. The calls are words filed in the database; no cut-off is given here.

As a reminder, the inhibition is the relative decrease from the control value, in per cent.

One assay has as its target T1, Glutaminase kidney isoform, mitochondrial (Mus musculus) (UniProt D3Z7P3).
T1 sequence (whole entry): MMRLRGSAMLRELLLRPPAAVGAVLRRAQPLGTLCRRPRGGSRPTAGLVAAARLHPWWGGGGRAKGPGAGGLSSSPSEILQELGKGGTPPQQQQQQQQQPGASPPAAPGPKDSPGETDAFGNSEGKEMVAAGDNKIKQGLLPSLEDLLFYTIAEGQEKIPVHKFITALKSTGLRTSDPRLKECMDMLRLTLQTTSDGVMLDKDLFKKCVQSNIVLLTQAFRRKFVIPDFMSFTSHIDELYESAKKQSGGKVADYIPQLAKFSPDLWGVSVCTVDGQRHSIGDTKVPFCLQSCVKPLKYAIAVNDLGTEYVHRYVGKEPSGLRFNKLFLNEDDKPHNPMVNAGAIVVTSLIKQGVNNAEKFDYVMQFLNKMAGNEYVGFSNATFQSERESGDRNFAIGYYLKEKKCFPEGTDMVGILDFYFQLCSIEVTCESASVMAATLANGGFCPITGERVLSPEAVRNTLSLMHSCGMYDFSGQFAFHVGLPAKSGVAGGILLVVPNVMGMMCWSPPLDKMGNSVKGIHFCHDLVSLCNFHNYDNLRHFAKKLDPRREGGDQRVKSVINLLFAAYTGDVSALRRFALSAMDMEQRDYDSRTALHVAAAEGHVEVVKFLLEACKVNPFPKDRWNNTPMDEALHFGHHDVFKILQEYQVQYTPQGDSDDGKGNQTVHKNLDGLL
Nature of the assay: Inhibition of GLS1 in mouse kidney extract at 1 mM relative to control. It counts as tissue-based.
Details: not given
As to `[N-]=[N+]=CC(=O)CC[C@H](N)C(=O)O`, the inhibition was 65.5%.

Another assay addresses T1, Glutaminase kidney isoform, mitochondrial (Mus musculus). Nature of the assay: Inhibition of GLS1 in mouse kidney extract at 10 mM relative to control. It is filed as tissue-based.
Details: not given
With `NNC(=O)c1cc(-c2ccccc2)n[nH]1`, the inhibition was found to be 52.6%. The same measure, in the same setting: the result for `O=C(N[C@H]1CC[C@H](O)CC1)c1cc(CCc2ccccc2)n[nH]1` reads 58.6%; that for `O=C(N[C@H]1CC[C@H](O)CC1)c1cc(Cc2ccccc2)n[nH]1`, 99.4%; that for `O=C(N[C@H]1CC[C@H](O)CC1)c1cc(Cc2ccc(F)cc2)n[nH]1`, 90.1%. On the same count and under the same terms, the same measure for `O=C(N[C@H]1CC[C@H](O)CC1)c1cc(-c2ccccc2)n[nH]1`: 93.3%.

A further assay has the same target. Kind of assay: Inhibition of mouse recombinant GLS1 glutaminase activity at 1 mM.
Details: not given
Regarding `[N-]=[N+]=CC(=O)CC[C@H](N)C(=O)O`, the inhibition result was “Active”.

The next assay shares this target. Kind of assay: Inhibition of mouse recombinant GLS1 relative to control. Particulars: concentration not given here.
As for `[N-]=[N+]=CC(=O)CC[C@H](N)C(=O)O`, the inhibition worked out at 55.5%. On the same count and under the same terms, the result for `O=C(N[C@H]1CC[C@H](O)CC1)c1cc(Cc2ccccc2)n[nH]1` reads 19.7%; that for `O=C(N[C@H]1CC[C@H](O)CC1)c1cc(Cc2ccc(F)cc2)n[nH]1`, 73.2%. Same read-out and setting: the same measure for `O=C(N[C@H]1CC[C@H](O)CC1)c1cc(-c2ccccc2)n[nH]1`: 81.4%.

The next assay concerns the target T2, Glutaminase kidney isoform, mitochondrial (Homo sapiens) (UniProt O94925).
T2 sequence (whole entry): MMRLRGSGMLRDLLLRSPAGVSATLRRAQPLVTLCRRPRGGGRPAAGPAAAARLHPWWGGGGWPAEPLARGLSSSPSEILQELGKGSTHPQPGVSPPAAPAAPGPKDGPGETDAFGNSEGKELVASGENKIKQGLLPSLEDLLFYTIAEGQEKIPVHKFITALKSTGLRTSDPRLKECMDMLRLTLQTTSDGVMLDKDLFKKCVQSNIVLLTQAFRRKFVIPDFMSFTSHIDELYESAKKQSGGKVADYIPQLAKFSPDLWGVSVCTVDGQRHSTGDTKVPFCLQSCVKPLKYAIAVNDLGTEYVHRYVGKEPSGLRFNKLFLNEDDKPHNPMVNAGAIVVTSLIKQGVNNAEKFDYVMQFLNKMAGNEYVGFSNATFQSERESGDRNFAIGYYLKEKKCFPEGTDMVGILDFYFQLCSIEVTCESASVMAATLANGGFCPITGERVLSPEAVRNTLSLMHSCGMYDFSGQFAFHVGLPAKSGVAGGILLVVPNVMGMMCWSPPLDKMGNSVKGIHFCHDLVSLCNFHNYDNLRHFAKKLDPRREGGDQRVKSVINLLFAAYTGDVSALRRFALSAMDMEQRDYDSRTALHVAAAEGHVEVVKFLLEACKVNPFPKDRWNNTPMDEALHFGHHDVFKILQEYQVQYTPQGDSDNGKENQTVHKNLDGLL
Kind of assay: Inhibition of human recombinant GLS1 at 10 mM relative to control.
Details: not given
Turning to `O=C(N[C@H]1CC[C@H](O)CC1)c1cc(Cc2ccc(F)cc2)n[nH]1`, the inhibition came to 94.6%. The same measure, in the same setting: the result for `O=C(N[C@H]1CC[C@H](O)CC1)c1cc(-c2ccccc2)n[nH]1` reads 97.1%.

A further assay deals with T2, Glutaminase kidney isoform, mitochondrial (Homo sapiens). Nature of the assay: Inhibition of human recombinant GLS1 at 1 mM relative to control.
Details: not given
For `[N-]=[N+]=CC(=O)CC[C@H](N)C(=O)O`, the inhibition was determined as 84.1%.

A further assay concerns the target T1, Glutaminase kidney isoform, mitochondrial (Mus musculus). Nature of the assay: Inhibition of GLS1 in mouse kidney extract at 10 mM. It is filed as tissue-based.
Details: not given
On to `O=C(N[C@H]1CC[C@H](O)CC1)c1ncc(-c2ccccc2)[nH]1`, for which the inhibition result is “Active”.

Take `CN(C)C(=O)c1cc(Cc2ccccc2)n[nH]1`: the inhibition result is “inactive”. The same measure, in the same setting: the result for `O=C(c1cc(Cc2ccccc2)n[nH]1)N1CCCC1` reads “inactive”; that for `O=C(c1cc(Cc2ccccc2)n[nH]1)N1CCCCCC1`, “inactive”.

`O=C1CCC(NC(=O)c2cc(Cc3ccccc3)n[nH]2)CC1`: the inhibition result was “inactive”.

Turning to `O=C(c1cc(Cc2ccccc2)n[nH]1)N1CCC(O)CC1`, the inhibition result was “inactive”. As to `O=C(Nc1ccccc1)c1cc(Cc2ccccc2)n[nH]1`, the inhibition entry was “inactive”.

As to `O=C(c1cc(Cc2ccccc2)n[nH]1)N1CCOCC1`, the inhibition result was “inactive”.

As for `O=C(NCCO)c1cc(Cc2ccccc2)n[nH]1`, the inhibition entry is “inactive”. Same read-out and setting: the same measure for `CNC(=O)c1cc(Cc2ccccc2)n[nH]1`: “inactive”; for `CON(C)C(=O)c1cc(Cc2ccccc2)n[nH]1`: “inactive”. The same measure, in the same setting: the same measure for `O=C(N[C@H]1CC[C@H](O)CC1)c1cc(-c2ccccc2)c[nH]1`: “inactive”; for `O=C(N[C@H]1CC[C@H](O)CC1)c1ccc(-c2ccccc2)[nH]1`: “inactive”; for `O=C(c1cc(Cc2ccccc2)n[nH]1)N1CCCCC1`: “inactive”.
